Source: the NIST ThermoML archive (doi:10.1021/je800145h)

Settings: Liquid

CCO [ethanol]
Settings	vapor or sublimation pressure [kPa]
329.62 K	40
335.99 K	53.33
341.2 K	66.66
345.6 K	79.99
349.42 K	93.32
350.82 K	98.66

CC(C)O [propan-2-ol]
Settings	vapor or sublimation pressure [kPa]
333.94 K	40
340.18 K	53.33
345.25 K	66.66
349.55 K	79.99
353.3 K	93.32
354.67 K	98.66

CO [methanol]
Settings	vapor or sublimation pressure [kPa]
315.75 K	40
322.15 K	53.33
327.34 K	66.66
331.73 K	79.99
335.57 K	93.32
336.98 K	98.66

CC(C)CO [2-methyl-1-propanol]
Settings	vapor or sublimation pressure [kPa]
357.45 K	40
364.17 K	53.33
369.67 K	66.66
374.35 K	79.99
378.45 K	93.32
379.96 K	98.66

CCCCO [butan-1-ol]
Settings	vapor or sublimation pressure [kPa]
366.76 K	40
373.74 K	53.33
379.43 K	66.66
384.26 K	79.99
388.49 K	93.32
390.04 K	98.66

CC(C)(C)O [2-methylpropan-2-ol]
Settings	vapor or sublimation pressure [kPa]
333.9 K	40
340.13 K	53.33
345.21 K	66.66
349.53 K	79.99
353.32 K	93.32
354.61 K	98.66

CCC(C)O (stereo unspecified) [butan-2-ol]
Settings	vapor or sublimation pressure [kPa]
349.73 K	40
356.36 K	53.33
361.77 K	66.66
366.36 K	79.99
370.38 K	93.32
371.86 K	98.66

CCCO [propan-1-ol]
Settings	vapor or sublimation pressure [kPa]
347.55 K	40
354.18 K	53.33
359.56 K	66.66
364.11 K	79.99
368.08 K	93.32
369.55 K	98.66

C1CCOCC1 [tetrahydropyran]
Settings	mass density [kg/m3]
298.15 K, 101.33 kPa, Vibrating tube method	879

Settings	vapor or sublimation pressure [kPa]
332.98 K	40
341.09 K	53.33
347.72 K	66.66
353.38 K	79.99
358.37 K	93.32
360.22 K	98.66
361.23 K	101.32
